Experiments:
rat mGluR5 = biological target: T1, rat mGluR5 (Rattus norvegicus, UniProt P31424); assay: MGluR5 receptor binding test ([3H]-M-MPEP displacement, rat cerebro-cortical membrane preparation); conditions: rat mGluR5, [3H]-M-MPEP 2 nM; read-out: mGlu5 Ki
T1 construct: Rat cerebro-cortical membrane preparation was used; from tissue; host or cells: rat cerebral cortex (membrane preparation)
Description: Rat cerebro-cortical membrane preparation was used to determine the binding characteristics of reference compounds and novel compounds to the rat mGluR5. The A18 cell line expressing hmGluR5a (purchased from Euroscreen) was used to determine binding characteristics of the chemical compounds to the human mGluR5a receptor. [3H]-M-MPEP (2 nM) was used as radioligand. The nonspecific binding was determined in the presence of 10 μM M-MPEP.

rat mGluR1 = biological target: T2, rat mGluR1 (Rattus norvegicus, UniProt P23385); assay: MGluR1 receptor binding test ([3H]R214127 displacement, rat cerebellar membrane preparation); conditions: rat mGluR1, [3H]R214127 3 nM; read-out: mGlu1 Ki
T2 construct: rat cerebellar membrane preparation was used; from tissue; host or cells: rat cerebellum (membrane preparation)
T2 sequence (P23385 19-1199): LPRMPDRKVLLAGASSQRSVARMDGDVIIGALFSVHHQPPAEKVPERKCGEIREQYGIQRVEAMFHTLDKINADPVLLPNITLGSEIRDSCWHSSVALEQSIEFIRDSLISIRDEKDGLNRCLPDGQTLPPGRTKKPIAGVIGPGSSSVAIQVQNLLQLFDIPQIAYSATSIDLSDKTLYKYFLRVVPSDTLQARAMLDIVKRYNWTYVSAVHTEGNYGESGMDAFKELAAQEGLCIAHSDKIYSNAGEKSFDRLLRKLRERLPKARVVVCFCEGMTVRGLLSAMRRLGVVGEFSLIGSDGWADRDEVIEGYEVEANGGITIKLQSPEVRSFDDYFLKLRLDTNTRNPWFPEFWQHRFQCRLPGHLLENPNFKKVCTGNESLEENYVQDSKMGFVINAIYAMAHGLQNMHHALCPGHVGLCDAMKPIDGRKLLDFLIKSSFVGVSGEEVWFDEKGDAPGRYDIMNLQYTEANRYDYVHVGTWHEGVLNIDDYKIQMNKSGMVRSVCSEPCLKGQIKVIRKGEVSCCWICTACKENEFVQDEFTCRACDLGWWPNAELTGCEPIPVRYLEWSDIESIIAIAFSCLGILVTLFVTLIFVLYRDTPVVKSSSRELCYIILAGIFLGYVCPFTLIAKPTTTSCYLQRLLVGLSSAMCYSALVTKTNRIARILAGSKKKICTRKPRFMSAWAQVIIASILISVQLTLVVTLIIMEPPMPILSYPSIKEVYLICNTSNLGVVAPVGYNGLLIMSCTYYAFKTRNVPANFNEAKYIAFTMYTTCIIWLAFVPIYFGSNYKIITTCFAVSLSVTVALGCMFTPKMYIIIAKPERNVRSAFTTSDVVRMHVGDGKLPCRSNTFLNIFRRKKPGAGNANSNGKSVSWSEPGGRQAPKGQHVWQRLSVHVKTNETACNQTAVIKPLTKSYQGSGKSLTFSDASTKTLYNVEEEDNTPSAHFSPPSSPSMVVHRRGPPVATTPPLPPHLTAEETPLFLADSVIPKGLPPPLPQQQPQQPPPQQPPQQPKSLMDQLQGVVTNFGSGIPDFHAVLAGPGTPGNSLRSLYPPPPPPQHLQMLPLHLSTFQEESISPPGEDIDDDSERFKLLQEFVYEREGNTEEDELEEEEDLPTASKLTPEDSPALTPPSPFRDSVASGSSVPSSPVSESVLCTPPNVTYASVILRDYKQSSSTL
Outline: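 Rat cerebellar membranes with 3 nM [3H]R214127; nonspecific binding defined by 1 μM R214127. IC50 from displacement curves by nonlinear regression, converted to Ki by Cheng–Prusoff.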

T1 sequence (P31424 21-1203): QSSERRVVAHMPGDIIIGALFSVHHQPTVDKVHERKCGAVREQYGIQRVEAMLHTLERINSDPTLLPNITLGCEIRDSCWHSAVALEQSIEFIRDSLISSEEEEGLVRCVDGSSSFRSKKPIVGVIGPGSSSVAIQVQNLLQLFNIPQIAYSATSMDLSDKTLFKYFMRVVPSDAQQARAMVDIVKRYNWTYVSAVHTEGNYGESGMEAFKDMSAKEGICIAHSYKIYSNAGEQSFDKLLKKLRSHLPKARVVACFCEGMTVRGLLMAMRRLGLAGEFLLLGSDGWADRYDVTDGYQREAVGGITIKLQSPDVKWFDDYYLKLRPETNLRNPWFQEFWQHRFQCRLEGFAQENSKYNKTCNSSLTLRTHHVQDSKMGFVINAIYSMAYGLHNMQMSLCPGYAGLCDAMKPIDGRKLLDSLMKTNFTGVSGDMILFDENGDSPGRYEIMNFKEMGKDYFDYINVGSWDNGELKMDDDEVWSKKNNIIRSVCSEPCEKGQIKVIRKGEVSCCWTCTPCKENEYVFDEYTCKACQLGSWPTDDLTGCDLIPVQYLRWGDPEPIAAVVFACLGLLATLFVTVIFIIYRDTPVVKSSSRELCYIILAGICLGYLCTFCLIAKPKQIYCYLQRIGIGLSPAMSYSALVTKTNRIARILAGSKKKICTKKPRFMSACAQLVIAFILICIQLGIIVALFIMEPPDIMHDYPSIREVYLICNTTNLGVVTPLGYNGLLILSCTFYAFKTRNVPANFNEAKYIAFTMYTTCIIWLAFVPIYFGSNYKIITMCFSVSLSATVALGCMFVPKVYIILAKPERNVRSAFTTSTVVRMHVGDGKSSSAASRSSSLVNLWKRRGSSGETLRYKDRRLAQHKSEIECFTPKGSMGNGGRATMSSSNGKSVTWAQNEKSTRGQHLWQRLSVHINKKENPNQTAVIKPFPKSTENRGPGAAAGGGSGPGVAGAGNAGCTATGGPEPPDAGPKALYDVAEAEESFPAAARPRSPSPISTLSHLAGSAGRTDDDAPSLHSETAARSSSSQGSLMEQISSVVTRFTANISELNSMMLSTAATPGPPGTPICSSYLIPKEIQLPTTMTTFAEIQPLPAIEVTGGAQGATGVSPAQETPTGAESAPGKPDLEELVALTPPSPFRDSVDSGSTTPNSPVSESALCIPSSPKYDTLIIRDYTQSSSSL

| Structure (SMILES) | Ki (rat mGluR5) [nM] | Ki (rat mGluR1) [nM] |
| --- | --- | --- |
| O=S(=O)(c1cc(F)cc(F)c1)c1cnc2c(F)cccc2c1-c1ccc(F)cc1 [Compound 119] | < 200 | < 200 |
| O=S(=O)(c1cc(F)cc(F)c1)c1cnc2c(F)cccc2c1-c1ccc(Cl)cc1 [Compound 116] | < 200 | 200 to 500 |
| COc1cccc(-c2c(S(=O)(=O)c3ccc(OC)c(Cl)c3)cnc3ccc(F)cc23)c1 [Compound 75] | < 200 | > 500 |
| COc1ccc(S(=O)(=O)c2cnc3ccc(F)cc3c2-c2ccc(F)cc2)cc1 [Compound 143] | 200 to 500 | > 500 |
| O=S(=O)(c1ccc(F)c(Cl)c1)c1cnc2cc(F)ccc2c1-c1ccc(Cl)cc1 [Compound 102] | < 200 | 200 to 500 |
| O=S(=O)(c1cc(F)cc(F)c1)c1cnc2ccc(F)cc2c1-c1cccc(F)c1 [Compound 65] | 200 to 500 | 200 to 500 |
| O=S(=O)(c1ccc(F)c(F)c1)c1cnc2cc(F)ccc2c1-c1cccc(Cl)c1 [Compound 97] | 200 to 500 | 200 to 500 |
| Cc1ccc(S(=O)(=O)c2cnc3c(F)cccc3c2-c2cccc(F)c2)cc1F [Compound 111] | < 200 | > 500 |
| O=S(=O)(c1ccc(Cl)c(Cl)c1)c1cnc2cc(Cl)ccc2c1-c1ccc(F)c(F)c1 [Compound 248] | < 200 | 200 to 500 |
| O=S(=O)(c1cccc(F)c1)c1cnc2ccc(F)cc2c1-c1ccc(Cl)cc1 [Compound 32] | > 500 | > 500 |
| O=S(=O)(c1cc(F)cc(F)c1)c1cnc2cc(F)ccc2c1-c1ccc(F)cc1 [Compound 36] | < 200 | > 500 |
| O=S(=O)(c1ccc(F)c(Cl)c1)c1cnc2cc(F)ccc2c1-c1ccccc1F [Compound 224] | < 200 | 200 to 500 |
| O=S(=O)(c1cc(Cl)cc(Cl)c1)c1cnc2cc(Cl)ccc2c1-c1cccc(F)c1 [Compound 166] | < 200 | > 500 |
| COc1cccc(-c2c(S(=O)(=O)c3cccc(Cl)c3)cnc3ccc(F)cc23)c1 [Compound 34] | > 500 | > 500 |
| COc1cccc(-c2c(S(=O)(=O)c3cc(Cl)cc(Cl)c3)cnc3c(F)cccc23)c1 [Compound 108] | < 200 | > 500 |
| N#Cc1cc(S(=O)(=O)c2cnc3cc(F)ccc3c2-c2ccc(F)cc2)ccc1F [Compound 275] | < 200 | > 500 |
| O=S(=O)(c1cc(Cl)cc(Cl)c1)c1cnc2c(F)cccc2c1-c1ccc(Cl)cc1 [Compound 159] | < 200 | 200 to 500 |
| COc1cccc(-c2c(S(=O)(=O)c3ccc(C)c(C)c3)cnc3cc(F)ccc23)c1 [Compound 19] | < 200 | > 500 |
| O=S(=O)(c1ccc(F)cc1)c1cnc2ccc(Cl)cc2c1-c1ccc(Cl)cc1 [Compound 2] | > 500 | > 500 |
| O=S(=O)(c1cc(Cl)cc(Cl)c1)c1cnc2c(F)cccc2c1-c1cccc(F)c1 [Compound 106] | < 200 | > 500 |
| O=S(=O)(c1ccc(Cl)cc1)c1cnc2c(Cl)cccc2c1-c1ccc(Cl)c(Cl)c1 [Compound 184] | > 500 | > 500 |
| O=S(=O)(c1cc(Cl)cc(Cl)c1)c1cnc2cc(F)ccc2c1-c1ccccc1F [Compound 257] | < 200 | > 500 |
| COc1cccc(-c2c(S(=O)(=O)c3ccc(C)c(F)c3)cnc3c(F)cccc23)c1 [Compound 113] | < 200 | > 500 |
| O=S(=O)(c1ccc(Cl)c(F)c1)c1cnc2cc(F)c(Cl)cc2c1-c1ccc(F)cc1 [Compound 190] | < 200 | > 500 |

| Structure (SMILES) | Ki (rat mGluR5) [nM] | Ki (rat mGluR1) [nM] |
| --- | --- | --- |
| O=S(=O)(c1cccc(F)c1)c1cnc2cc(F)ccc2c1-c1ccc(F)cc1 [Compound 16] | < 200 | > 500 |
| O=S(=O)(c1cc(F)cc(F)c1)c1cnc2cc(Cl)ccc2c1-c1ccc(Cl)cc1 [Compound 174] | < 200 | > 500 |
| O=S(=O)(c1ccc(F)cc1)c1cnc2c(F)cccc2c1-c1cccc(F)c1 [Compound 22] | < 200 | 200 to 500 |
| N#Cc1cc(F)cc(S(=O)(=O)c2cnc3cc(F)ccc3c2-c2ccc(Cl)cc2)c1 [Compound 268] | < 200 | > 500 |
| O=S(=O)(c1cc(F)cc(F)c1)c1cnc2cc(Cl)c(F)cc2c1-c1ccc(F)cc1 [Compound 202] | 200 to 500 | > 500 |
| COc1ccc(-c2c(S(=O)(=O)c3ccc(OC)cc3)cnc3ccc(F)cc23)cc1 [Compound 163] | < 200 | > 500 |
| N#Cc1cccc(S(=O)(=O)c2cnc3ccc(F)cc3c2-c2ccc(F)cc2)c1 [Compound 69] | < 200 | 200 to 500 |
| N#Cc1cc(F)cc(S(=O)(=O)c2cnc3cc(F)ccc3c2-c2cccc(Cl)c2)c1 [Compound 244] | < 200 | > 500 |
| O=S(=O)(c1ccc(F)c(Cl)c1)c1cnc2cc(Cl)ccc2c1-c1ccc(Cl)cc1 [Compound 176] | < 200 | > 500 |
| O=S(=O)(c1ccc(F)c(Cl)c1)c1cnc2c(F)cccc2c1-c1ccc(F)cc1 [Compound 212] | < 200 | 200 to 500 |
| COc1cccc(-c2c(S(=O)(=O)c3cccc(C#N)c3)cnc3ccc(F)cc23)c1 [Compound 68, 3-(3-cyano-benzenesulfonyl)-6-fluoro-4-(3-methoxy-phenyl)-quinoline] | < 200 | > 500 |
| N#Cc1cccc(S(=O)(=O)c2cnc3c(F)c(Cl)ccc3c2-c2cccc(Cl)c2)c1 [Compound 253] | < 200 | 200 to 500 |
| Cc1ccc(S(=O)(=O)c2cnc3cc(F)ccc3c2-c2cccc(F)c2)cc1F [Compound 85] | < 200 | > 500 |
| COc1ccc(S(=O)(=O)c2cnc3cc(F)ccc3c2-c2cccc(F)c2)cc1 [Compound 12] | 200 to 500 | > 500 |
| COc1cccc(-c2c(S(=O)(=O)c3cc(F)cc(F)c3)cnc3c(F)cccc23)c1 [Compound 118] | < 200 | > 500 |
| N#Cc1cc(S(=O)(=O)c2cnc3ccccc3c2-c2ccc(Cl)c(Cl)c2)ccc1F [Compound 232] | < 200 | > 500 |
| N#Cc1cc(F)cc(S(=O)(=O)c2cnc3ccccc3c2-c2ccc(Cl)cc2)c1 [Compound 272] | < 200 | > 500 |
| O=S(=O)(c1cc(Cl)cc(Cl)c1)c1cnc2cc(F)ccc2c1-c1cccc(F)c1 [Compound 80] | < 200 | 200 to 500 |
| COc1ccc(S(=O)(=O)c2cnc3c(F)cccc3c2-c2cccc(OC)c2)cc1 [Compound 57] | < 200 | > 500 |
| N#Cc1cccc(S(=O)(=O)c2cnc3cc(F)ccc3c2-c2ccccc2F)c1 [Compound 230] | < 200 | > 500 |
| N#Cc1cccc(S(=O)(=O)c2cnc3ccccc3c2-c2cccc(Cl)c2)c1 [Compound 265] | < 200 | > 500 |
| COc1ccc(S(=O)(=O)c2cnc3ccc(F)cc3c2-c2ccc(Cl)cc2)cc1OC [Compound 164] | > 500 | > 500 |
| COc1cccc(-c2c(S(=O)(=O)c3ccc(OC)c(Cl)c3)cnc3cc(F)ccc23)c1 [Compound 96] | 200 to 500 | > 500 |
| O=S(=O)(c1ccc(F)c(F)c1)c1cnc2c(F)c(Cl)ccc2c1-c1cccc(F)c1 [Compound 196] | < 200 | > 500 |

Source: patent US8063220B2, “Sulfonyl-quinoline derivatives” (Richter Gedeon Nyrt., priority 2007, dated 2011)
